The record followed here is patent publication US9340538B2, “Dihydropyrimidine compounds and their application in pharmaceuticals” (SUNSHINE LAKE PHARMA CO., LTD., priority 2013, dated 2016).

In this assay the test system is HBV. Nature of the assay: In-vitro anti-HBV activity in stable HBV-producing cell line (HepG2.2.15), HBV DNA in culture fluid by qPCR. The settings on record: Hepatitis B virus, read-out: HBV (% Inh.) (500 nmol). The assay is classed as cell-based. As for the experimental part:
In-Vitro Anti-HBV Activity of Compounds in Stable HBV-Producing Cell Line (HepG2.2.15)
HBV DNA contents in cell culture fluid were detected by the qPCR-based assay and percents of HBV inhibition by compounds (% Inh) were calculated. Specific procedures are as follows:
HepG2.2.15 cells were seeded into each well of 96-well plates, 40,000 cells per well. Cells were treated with cell culture medium containing compounds 24 hours after cell seeding. Each compound to detected percent inhibition was in duplicate and the final concentration of each compound was 500 nmol in each well. The compound-containing mediums were refreshed on day 4 post cell seeding. Culture media were collected from the HepG2.2.15 plates on day 7 post cell seeding followed by HBV DNA extraction.
HBV DNA extraction: using QIAamp 96 DNA Blood Kit (QIAGEN 51161).
PCR for quantification: PCR mix was prepared according to PCR system; PCR mix was dispensed to 384-well optical reaction plates (special for quantification); The standard diluted proportionally was added; The sample was added; The plates were sealed with optical adhesive film; PCR system was performed according to programs.
Percent of HBV inhibition of DNA replication by compound was calculated using the following equation: % Inh.=[1-HBV DNA quantity of sample/HBV DNA quantity of DMSO control]*100. II. Assay Results

Setting [1] is: 168 h, 500 nmol final concentration, HepG2.2.15 cells, HBV DNA in culture media on day 7 post seeding, vs DMSO control.

Where two headings read alike, the source gives them in different places.

For `CCOC(=O)C1=C(CN2CCOCC2C(=O)O)NC(c2nccn2C)=NC1c1ccc(F)cc1Br` (stereo not shown) [Example 125, 4-((6-(2-bromo-4-fluorophenyl)-5-(ethoxycarbonyl)-2-(1-methyl-1H-imidazol-2-yl)-3,6-dihydropyrimidin-4-yl)methyl)morpholine-3-carboxylic acid], the inhibition at 0.5 µM under setting [1] was determined as 92.5%. As to `CCOC(=O)C1=C(CN2CCOCC2C(=O)O)NC(c2nc(C(F)(F)F)cs2)=NC1c1ccc(Cl)cc1Cl` (stereo not shown) [Example 119, 4-((6-(2,4-dichlorophenyl)-5-(ethoxycarbonyl)-2-(4-(trifluoromethyl)thiazol-2-yl)-3,6-dihydropyrimidin-4-yl)methyl)morpholine-3-carboxylic acid], the inhibition at 0.5 µM under setting [1] stood at 94%. On the same count and under the same terms, the result for `CCOC(=O)C1=C(CN2CCOC[C@@H]2CO)NC(c2nccs2)=NC1c1ccc(F)cc1Br` (stereo partly drawn) [Example 40, Ethyl 4-(2-bromo-4-fluorophenyl)-6-(((S)-3-(hydroxymethyl)morpholino)methyl)-2-(thiazol-2-yl)-1,4-dihydropyrimidine-5-carboxylate] reads 95%; that for `CCOC(=O)C1=C(CN2CCOCC2C(=O)NC(C)C)NC(c2nccs2)=NC1c1ccc(F)cc1Br` (stereo not shown) [Example 82, Ethyl 4-(2-bromo-4-fluorophenyl)-6-((3-(isopropylcarbamoyl)morpholino)methyl)-2-(thiazol-2-yl)-1,4-dihydropyrimidine-5-carboxylate], 96%; that for `CCOC(=O)C1=C(CN2CCOC[C@H]2C(=O)NOC)NC(c2nccs2)=NC1c1ccc(F)cc1Br` (stereo partly drawn) [Example 53, Ethyl 4-(2-bromo-4-fluorophenyl)-6-(((S)-3-(methoxycarbamoyl)morpholino)methyl)-2-(thiazol-2-yl)-1,4-dihydropyrimidine-5-carboxylate], 92.6%. Still for that read-out and setting: the figure for `CCOC(=O)C1=C(CN2CCOCC2C(=O)O)NC(c2ncc(F)s2)=NC1c1ccc(Cl)cc1Cl` (stereo not shown) [Example 122, 4-((6-(2,4-dichlorophenyl)-5-(ethoxycarbonyl)-2-(5-fluorothiazol-2-yl)-3,6-dihydropyrimidin-4-yl)methyl)morpholine-3-carboxylic acid] is 46.2%. Consider `CCOC(=O)C1=C(CN2CCOCC2C(=O)O)NC(c2nccs2)=NC1c1ccc(F)cc1Br` (stereo not shown) [Example 3, 4-((6-(2-bromo-4-fluorophenyl)-5-(ethoxycarbonyl)-2-(thiazol-2-yl)-3,6-dihydropyrimidin-4-yl)methyl)morpholine-3-carboxylic acid], for which the inhibition at 0.5 µM under setting [1] was found to be 84.5%. For `CCOC(=O)C1=C(CN2CCOC[C@H]2C(=O)NCCOC(C)=O)NC(c2nccs2)=NC1c1ccc(F)cc1Br` (stereo partly drawn) [Example 55, Ethyl 6-(((S)-3-((2-acetoxyethyl)carbamoyl)morpholino)methyl)-4-(2-bromo-4-fluorophenyl)-2-(thiazol-2-yl)-1,4-dihydropyrimidine-5-carboxylate], the inhibition at 0.5 µM under setting [1] was 93%. As for `CCOC(=O)C1=C(CN2CCO[C@H](COC(=O)C(N)C(C)C)C2)NC(c2nccs2)=NC1c1ccc(F)cc1Br` (stereo in doubt) [Example 126, Ethyl 6-(((S)-2-((((S)-2-amino-3-methylbutanoyl)oxy)methyl)morpholino)methyl)-4-(2-bromo-4-fluorophenyl)-2-(thiazol-2-yl)-1,4-dihydropyrimidine-5-carboxylate], the inhibition at 0.5 µM under setting [1] was determined as 94.7%. On to `CCOC(=O)C1=C(CN2CCOC[C@H]2COC(=O)[C@@H](N)C(C)C)NC(c2nccs2)=NC1c1ccc(F)cc1Br` (stereo partly drawn) [Example 49, Ethyl 6-(((S)-3-((((S)-2-amino-3-methylbutanoyl)oxy)methyl)morpholino)methyl)-4-(2-bromo-4-fluorophenyl)-2-(thiazol-2-yl)-1,4-dihydropyrimidine-5-carboxylate], for which the inhibition at 0.5 µM under setting [1] stood at 96.2%. As for `CCOC(=O)C1=C(CN2CCOC[C@H]2C(=O)NCCO)NC(c2nccs2)=NC1c1ccc(F)cc1Br` (stereo partly drawn) [Example 54, Ethyl 4-(2-bromo-4-fluorophenyl)-6-(((S)-3-((2-hydroxyethyl)carbamoyl)morpholino)methyl)-2-(thiazol-2-yl)-1,4-dihydropyrimidine-5-carboxylate], the inhibition at 0.5 µM under setting [1] was found to be 91%. For the compound `CCOC(=O)C1=C(CN2CC(C)(C)OC[C@H]2C(=O)O)NC(c2nccs2)=NC1c1ccc(F)cc1Cl` (stereo partly drawn) [Example 23, (3S)-4-((6-(2-chloro-4-fluorophenyl)-5-(ethoxycarbonyl)-2-(thiazol-2-yl)-3,6-dihydropyrimidin-4-yl)methyl)-6,6-dimethylmorpholine-3-carboxylic acid], the inhibition at 0.5 µM under setting [1] stood at 45%. Consider `CCOC(=O)C1=C(CN2CCOCC2C(=O)O)NC(c2nccs2)=NC1c1ccc(Cl)cc1Cl` (stereo not shown) [Example 5, 4-((6-(2,4-dichlorophenyl)-5-(ethoxycarbonyl)-2-(thiazol-2-yl)-3,6-dihydropyrimidin-4-yl)methyl)morpholine-3-carboxylic acid], for which, under “HepG2.2.15, 168 h”, the inhibition at 0.5 µM is 95%.

`CCOC(=O)C1=C(CN2CC(C)(C)OC[C@H]2C(=O)O)NC(c2nccs2)=NC1c1ccc(Cl)cc1Cl` (stereo partly drawn) [Example 21, (3S)-4-((6-(2,4-dichlorophenyl)-5-(ethoxycarbonyl)-2-(thiazol-2-yl)-3,6-dihydropyrimidin-4-yl)methyl)-6,6-dimethylmorpholine-3-carboxylic acid]: the inhibition at 0.5 µM under setting [1] was determined as 51.2%. On to `CCOC(=O)C1=C(CN2CCOC(C(=O)O)C2)NC(c2nccs2)=NC1c1ccc(F)cc1Br` (stereo not shown) [Example 9, 4-((6-(2-bromo-4-fluorophenyl)-5-(ethoxycarbonyl)-2-(thiazol-2-yl)-3,6-dihydropyrimidin-4-yl)methyl)morpholine-2-carboxylic acid], for which the inhibition at 0.5 µM (HepG2.2.15, 168 h) worked out at 93.1%. `CCOC(=O)C1=C(CN2CCOCC2C(=O)O)NC(c2nncs2)=NC1c1ccc(Cl)cc1Cl` (stereo not shown) [Example 70, 4-((6-(2,4-dichlorophenyl)-5-(ethoxycarbonyl)-2-(1,3,4-thiadiazol-2-yl)-3,6-dihydropyrimidin-4-yl)methyl)morpholine-3-carboxylic acid]: under setting [1], the inhibition at 0.5 µM is 63.6%. For `CCOC(=O)C1=C(CN2CCOC(CCC(N)=O)C2)NC(c2nccs2)=NC1c1ccc(F)cc1Br` (stereo not shown) [Example 135, Ethyl 6-((2-(3-amino-3-oxopropyl)morpholino)methyl)-4-(2-bromo-4-fluorophenyl)-2-(thiazol-2-yl)-1,4-dihydropyrimidine-5-carboxylate], the inhibition at 0.5 µM under setting [1] was found to be 93.3%. `CCOC(=O)C1=C(CN2CCO[C@H](C)[C@H]2C(=O)O)NC(c2nccs2)=NC1c1ccc(F)cc1Br` (stereo partly drawn) [Example 34, (2R,3S)-4-((6-(2-bromo-4-fluorophenyl)-5-(ethoxycarbonyl)-2-(thiazol-2-yl)-3,6-dihydropyrimidin-4-yl)methyl)-2-methylmorpholine-3-carboxylic acid]: the inhibition at 0.5 µM (HepG2.2.15, 168 h) was determined as 94.3%. For the compound `CCOC(=O)C1=C(CN2CCOC[C@H]2C(=O)N(C)OC)NC(c2nccs2)=NC1c1ccc(F)cc1Br` (stereo partly drawn) [Example 60, Ethyl 4-(2-bromo-4-fluorophenyl)-6-(((S)-3-(methoxy(methyl)carbamoyl)morpholino)methyl)-2-(thiazol-2-yl)-1,4-dihydropyrimidine-5-carboxylate], the inhibition at 0.5 µM under setting [1] stood at 94%. `CCOC(=O)C1=C(CN2CCOC(CCCO)C2)NC(c2nccs2)=NC1c1ccc(F)cc1Br` (stereo not shown) [Example 133, Ethyl 4-(2-bromo-4-fluorophenyl)-6-((2-(3-hydroxypropyl)morpholino)methyl)-2-(thiazol-2-yl)-1,4-dihydropyrimidine-5-carboxylate]: the inhibition at 0.5 µM under setting [1] worked out at 92.6%.

Consider `CCOC(=O)C1=C(CN2CCOCC2C(N)=O)NC(c2nccs2)=NC1c1ccc(F)cc1Br` (stereo not shown) [Example 25, Ethyl 4-(2-bromo-4-fluorophenyl)-6-((3-carbamoylmorpholino)methyl)-2-(thiazol-2-yl)-1,4-dihydropyrimidine-5-carboxylate], for which the inhibition at 0.5 µM under setting [1] came to 91.9%.

In the case of `COC(=O)C1=C(CN2CCOCC2C(=O)O)NC(c2nccs2)=NC1c1ccc(F)cc1Br` (stereo not shown) [Example 6, 4-((6-(2-bromo-4-fluorophenyl)-5-(methoxycarbonyl)-2-(thiazol-2-yl)-3,6-dihydropyrimidin-4-yl)methyl)morpholine-3-carboxylic acid], the inhibition at 0.5 µM under setting [1] stood at 99.9%.
